Blank lines part the entries; values can stand above or below the compound they belong to.
Experiments:
Human FXIIa = target: T1, Human FXIIa (Homo sapiens, UniProt P00748); assay: Factor XIIa (FXIIa) inhibitory activity, chromogenic substrate assay; type: biochemical; conditions: Human FXIIa 12.5 nM, Pefachrome XIIa 400 μM, 10 min preincubation
T1 construct: active coagulation factor XII (FXIIa); purchased Enzyme Research Labs
T1 sequence (P00748 373-615 limits assumed): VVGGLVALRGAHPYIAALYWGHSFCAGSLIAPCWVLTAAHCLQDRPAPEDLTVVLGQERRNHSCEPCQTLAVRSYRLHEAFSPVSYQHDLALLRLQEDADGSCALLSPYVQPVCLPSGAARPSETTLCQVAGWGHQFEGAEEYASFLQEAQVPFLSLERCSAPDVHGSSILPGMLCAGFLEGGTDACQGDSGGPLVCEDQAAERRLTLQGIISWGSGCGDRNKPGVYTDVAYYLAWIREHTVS
T1 sequence (P00748 20-372 partner limits assumed): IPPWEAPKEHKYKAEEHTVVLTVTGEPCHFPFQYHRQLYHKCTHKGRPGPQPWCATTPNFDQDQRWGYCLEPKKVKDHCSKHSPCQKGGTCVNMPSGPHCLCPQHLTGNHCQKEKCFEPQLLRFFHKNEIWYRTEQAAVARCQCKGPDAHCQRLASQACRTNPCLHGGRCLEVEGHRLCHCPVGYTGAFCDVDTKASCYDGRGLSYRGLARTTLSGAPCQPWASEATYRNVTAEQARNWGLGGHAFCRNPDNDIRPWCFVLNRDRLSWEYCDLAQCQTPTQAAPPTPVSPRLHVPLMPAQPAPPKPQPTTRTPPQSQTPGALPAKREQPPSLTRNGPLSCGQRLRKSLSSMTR
Summary of the method: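 Activity was taken as the rate of absorbance increase at 405 nm, read at 37 °C after adding 400 μM (final) Pefachrome XIIa. Compounds spanning roughly 1–100 μM were first preincubated with enzyme for 10 min at room temperature in HEPES pH 7.4-buffered HBSS/TBS-Tween.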

Human alpha-thrombin = target: T2, Human alpha-thrombin (Homo sapiens, UniProt P00734); assay: Thrombin counterscreen for selectivity, fluorogenic substrate assay; type: biochemical; conditions: Human alpha-thrombin 12.5 nM, Boc-Val-Pro-Arg-AMC 20 μM, 10 min preincubation
T2 construct: Human alpha-thrombin (Enzyme Research Labs); purchased Enzyme Research Labs
Protocol: Counterscreens for Selectivity:
In a 96-well white opaque plate, 80 μl of assay buffer was added to each well. Test compounds were added, and serially diluted as above, to generate a concentration range of approximately 1-100 μM. […] 80 μl of this enzyme solution was added to the assay wells. The enzyme/compound mixtures were incubated for 10 minutes at room temperature. Fluorogenic substrate (Boc-Val-Pro-Arg-7-amido-4-methylcoumarin; Sigma) was added to assay wells at a final concentration of 20 μM. The assay plate was spun for 1 minute at 1500 g and then read at 37° C. in a SpectraMax M2 plate reader (λex=380 nm and λem=460 nm). Activity was quantified as the rate of change in fluorescence, which corresponds to the rate of substrate cleavage.

Structure (SMILES): CCN1CCC(C(=O)n2nc3c(c2N)CCCC3)c2ccccc21 (single isomer, unassigned) [Example 74, (3-amino-4,5,6,7-tetrahydroindazol-2-yl)(1-ethyl-1,2,3,4-tetrahydroquinolin-4-yl)methanone]
IC50 (Human FXIIa): 0.5 µM
IC50 (Human alpha-thrombin): > 100 µM

Structure (SMILES): CCN1CCC(C(=O)n2nc(N)c3c2CCCC3)c2ccccc21 (single isomer, unassigned) [Example 75, (3-amino-4,5,6,7-tetrahydroindazol-1-yl)(1-ethyl-1,2,3,4-tetrahydroquinolin-4-yl)methanone]
IC50 (Human FXIIa): > 100 µM
IC50 (Human alpha-thrombin): > 100 µM

Structure (SMILES): Nc1c2c(nn1C(=O)C1CCNc3ccccc31)CCCC2 (single isomer, unassigned) [Example 76, (3-amino-4,5,6,7-tetrahydroindazol-2-yl)(1,2,3,4-tetrahydroquinolin-4-yl)methanone]
IC50 (Human FXIIa): 0.3 µM
IC50 (Human alpha-thrombin): > 100 µM

Structure (SMILES): Nc1c2c(nn1C(=O)[C@H]1CCCc3[nH]c(Cl)cc31)CC[C@@H](O)C2 (single isomer, unassigned) [Example 125]
IC50 (Human FXIIa): 1.4 µM
IC50 (Human alpha-thrombin): > 100 µM

Structure (SMILES): Nc1c2c(nn1C(=O)[C@H]1CCCc3[nH]c(Cl)cc31)CC[C@@H](O)C2 (single isomer, unassigned) [Example 126, ((5R*)-3-amino-5-hydroxy-4,5,6,7-tetrahydroindazol-2-yl)((4S*)-2-chloro-4,5,6,7-tetrahydro-1H-indol-4-yl)methanone]
IC50 (Human FXIIa): 0.02 µM
IC50 (Human alpha-thrombin): 37 µM

Structure (SMILES): Nc1c2c(nn1C(=O)[C@H]1CCCc3[nH]c(Cl)cc31)CC[C@H](O)C2 (single isomer, unassigned) [Example 127, ((5S*)-3-amino-5-hydroxy-4,5,6,7-tetrahydroindazol-2-yl)((4S*)-2-chloro-4,5,6,7-tetrahydro-1H-indol-4-yl)methanone]
IC50 (Human FXIIa): 0.35 µM
IC50 (Human alpha-thrombin): > 80 µM

Structure (SMILES): Nc1c2c(nn1C(=O)[C@@H]1CCCc3[nH]c(Cl)cc31)CC[C@H](O)C2 (single isomer, unassigned) [Example 128, ((5S*)-3-amino-5-hydroxy-4,5,6,7-tetrahydroindazol-2-yl)((4R*)-2-chloro-4,5,6,7-tetrahydro-1H-indol-4-yl)methanone]
IC50 (Human FXIIa): 30 µM
IC50 (Human alpha-thrombin): > 65 µM

Structure (SMILES): Nc1c2c(nn1C(=O)[C@H]1CCNc3ccc(F)cc31)CC[C@@H](O)C2 (single isomer, unassigned) [Example 129, ((5R*)-3-amino-5-hydroxy-4,5,6,7-tetrahydro-2H-indazol-2-yl)(4(S*)-6-fluoro-1,2,3,4-tetrahydroquinolin-4-yl)methanone]
IC50 (Human FXIIa): 0.05 µM
IC50 (Human alpha-thrombin): > 150 µM

Structure (SMILES): Nc1c2c(nn1C(=O)[C@H]1CCNc3ccc(F)cc31)CC[C@@H](F)C2 (single isomer, unassigned) [Example 137, ((5R*)-3-amino-5-fluoro-4,5,6,7-tetrahydroindazol-2-yl)((4S*)-6-fluoro-1,2,3,4-tetrahydroquinolin-4-yl)methanone]
IC50 (Human FXIIa): 0.06 µM
IC50 (Human alpha-thrombin): 29 µM

Structure (SMILES): Nc1c2c(nn1C(=O)[C@H]1CCNc3ccc(F)cc31)CC[C@H](F)C2 (single isomer, unassigned) [Example 140, ((5S*)-3-amino-5-fluoro-4,5,6,7-tetrahydroindazol-2-yl)((4S*)-6-fluoro-1,2,3,4-tetrahydroquinolin-4-yl)methanone]
IC50 (Human FXIIa): 0.2 µM
IC50 (Human alpha-thrombin): > 60 µM

Structure (SMILES): Nc1c2c(nn1C(=O)[C@H]1CCNc3ccc(Cl)cc31)CC[C@H](O)C2 (single isomer, unassigned) [Example 143, ((5S*)-3-amino-5-hydroxy-4,5,6,7-tetrahydroindazol-2-yl)((4S*)-6-chloro-1,2,3,4-tetrahydroquinolin-4-yl)methanone]
IC50 (Human FXIIa): 1.3 µM
IC50 (Human alpha-thrombin): > 80 µM

Structure (SMILES): Nc1c2c(nn1C(=O)[C@H]1CCNc3ccc(Cl)cc31)CC[C@@H](O)C2 (single isomer, unassigned) [Example 148, ((5R*)-3-amino-5-hydroxy-4,5,6,7-tetrahydroindazol-2-yl)((4S*)-6-chloro-1,2,3,4-tetrahydroquinolin-4-yl)methanone]
IC50 (Human FXIIa): 0.04 µM
IC50 (Human alpha-thrombin): > 80 µM

Structure (SMILES): Nc1c2c(nn1C(=O)[C@H]1CCNc3ccccc31)CC[C@@H](O)C2 (single isomer, unassigned) [Example 165, ((5R*)-3-amino-5-hydroxy-4,5,6,7-tetrahydroindazol-2-yl)((4S*)-1,2,3,4-tetrahydroquinolin-4-yl)methanone]
IC50 (Human FXIIa): 0.35 µM
IC50 (Human alpha-thrombin): > 80 µM

The next lines start with the values.

IC50 (Human FXIIa): > 80 µM
IC50 (Human alpha-thrombin): > 80 µM
Structure (SMILES): Nc1nn(C(=O)[C@H]2CCNc3ccccc32)c2c1C[C@H](O)CC2 (single isomer, unassigned) [Example 167, ((5R*)-3-amino-5-hydroxy-4,5,6,7-tetrahydroindazol-1-yl)((4S*)-1,2,3,4-tetrahydroquinolin-4-yl)methanone]

IC50 (Human FXIIa): > 100 µM
IC50 (Human alpha-thrombin): > 100 µM
Structure (SMILES): Nc1nn(C(=O)[C@@H]2CCNc3ccccc32)c2c1C[C@H](O)CC2 (single isomer, unassigned) [Example 168, ((5R*)-3-amino-5-hydroxy-4,5,6,7-tetrahydroindazol-1-yl)((4R*)-1,2,3,4-tetrahydroquinolin-4-yl)methanone]

IC50 (Human FXIIa): 60 µM
IC50 (Human alpha-thrombin): > 100 µM
Structure (SMILES): Nc1c2c(nn1C(=O)[C@@H]1CCNc3ccccc31)CC[C@H](O)C2 (single isomer, unassigned) [Example 169, ((5S*)-3-amino-5-hydroxy-4,5,6,7-tetrahydroindazol-2-yl)((4R*)-1,2,3,4-tetrahydroquinolin-4-yl)methanone]

IC50 (Human FXIIa): 6 µM
IC50 (Human alpha-thrombin): > 150 µM
Structure (SMILES): Nc1c2c(nn1C(=O)[C@H]1CCNc3ccccc31)CC[C@H](O)C2 (single isomer, unassigned) [Example 170, ((5S*)-3-amino-5-hydroxy-4,5,6,7-tetrahydroindazol-2-yl)((4S*)-1,2,3,4-tetrahydroquinolin-4-yl)methanone]

IC50 (Human FXIIa): > 90 µM
IC50 (Human alpha-thrombin): > 90 µM
Structure (SMILES): Nc1nn(C(=O)[C@H]2CCNc3ccccc32)c2c1C[C@@H](O)CC2 (single isomer, unassigned) [Example 171, ((5S*)-3-amino-5-hydroxy-4,5,6,7-tetrahydroindazol-1-yl)((4S*)-1,2,3,4-tetrahydroquinolin-4-yl)methanone]

IC50 (Human FXIIa): > 100 µM
IC50 (Human alpha-thrombin): > 100 µM
Structure (SMILES): Nc1nn(C(=O)[C@@H]2CCNc3ccccc32)c2c1C[C@@H](O)CC2 (single isomer, unassigned) [Example 172, ((5S*)-3-amino-5-hydroxy-4,5,6,7-tetrahydroindazol-1-yl)((4R*)-1,2,3,4-tetrahydroquinolin-4-yl)methanone]

IC50 (Human FXIIa): 0.1 µM
IC50 (Human alpha-thrombin): 30 µM
Structure (SMILES): Nc1c2c(nn1C(=O)C1CCNc3ccc(F)cc31)CCC(F)(F)C2 (single isomer, unassigned) [Example 173, (S*)-(3-amino-5,5-difluoro-4,5,6,7-tetrahydroindazol-2-yl)(6-fluoro-1,2,3,4-tetrahydroquinolin-4-yl)methanone]

IC50 (Human FXIIa): 2 µM
IC50 (Human alpha-thrombin): > 100 µM
Structure (SMILES): CO[C@H]1CCc2nn(C(=O)[C@H]3CCNc4ccc(F)cc43)c(N)c2C1 (single isomer, unassigned) [Example 177, ((5S*)-3-amino-5-methoxy-4,5,6,7-tetrahydroindazol-2-yl)((4S*)-6-fluoro-1,2,3,4-tetrahydroquinolin-4-yl)methanone]

IC50 (Human FXIIa): 0.09 µM
IC50 (Human alpha-thrombin): > 80 µM
Structure (SMILES): CO[C@@H]1CCc2nn(C(=O)[C@@H]3CCNc4ccc(F)cc43)c(N)c2C1 (single isomer, unassigned) [Example 180, ((5R*)-3-amino-5-methoxy-4,5,6,7-tetrahydroindazol-2-yl)((4R*)-6-fluoro-1,2,3,4-tetrahydroquinolin-4-yl)methanone]

IC50 (Human FXIIa): 0.6 µM
IC50 (Human alpha-thrombin): > 100 µM
Structure (SMILES): Nc1c2c(nn1C(=O)[C@H]1CCNc3ccc(F)cc31)C[C@@H](O)CC2 (single isomer, unassigned) [Example 183, ((6S*)-3-amino-6-hydroxy-4,5,6,7-tetrahydroindazol-2-yl)((4S*)-6-fluoro-1,2,3,4-tetrahydroquinolin-4-yl)methanone]

IC50 (Human FXIIa): 0.07 µM
IC50 (Human alpha-thrombin): > 100 µM
Structure (SMILES): Nc1c2c(nn1C(=O)[C@H]1CCNc3ccc(F)cc31)C[C@H](O)CC2 (single isomer, unassigned) [Example 185, ((6R*)-3-amino-6-hydroxy-4,5,6,7-tetrahydroindazol-2-yl)((4S*)-6-fluoro-1,2,3,4-tetrahydroquinolin-4-yl)methanone]

— US10538512B2, “Aminoacylindazole immunomodulators for treatment of autoimmune diseases” (The Rockefeller University, priority 2016, dated 2020)
